The values below come from patent US7217831B2 (priority 2001, dated 2007).

The test system of assay [1] is Helicoverpa armigera larvae. Description: Glasshouse trial on geranium seedlings, racemic and isomeric C1 (Example 20). Particulars: Trial 1; 25 mM dose sprayed on geranium. The assay is classed as in vivo.
The subject of a further assay is Helicoverpa spp. larvae. Description: Field trial, commercial cotton crop, Kununurra (Example 19). The conditions noted are these: C1 plus EDTA 1.0 kg/ha each. The assay is classed as in vivo, Helicoverpa armigera.

With `CC(C)[C@H](NCP(=O)(O)O)C(=O)O` [D-C1, N-phosphonomethyl valine], in assay [1], the “Estimated leaf damage (%) at 7 DAA” value was 55% and the “Mean number of larvae/leaf at 7 DAA” value turned out to be 3.5.

Consider `O=C(O)CN(CCN(CC(=O)O)CC(=O)O)CC(=O)O` [EDTA, ethylenediaminetetraacetic acid], for which the “Mean number TLVA*/10 Terminals, 3 DAA” value in the assay with Helicoverpa spp. larvae (3 days after application, C1 2.0 kg/ha, EDTA 2.0 kg/ha) is 6.0. The “efficacy against Helicoverpa spp. infesting cotton (in words)” value in the assay on Helicoverpa spp. larvae (EDTA alone 2.0 kg/ha) is “no apparent influence on larval survival”. In addition, the “Mean number TLVA*/10 Terminals, −1 DAA” value with Helicoverpa spp. larvae (pre-application count, C1 2.0 kg/ha, EDTA 2.0 kg/ha) came to 0.0.

Turning to `CC(C)[C@H](NCP(=O)(O)O)C(=O)O` [L-C1, N-phosphonomethyl valine], in assay [1], the “Estimated leaf damage (%) at 7 DAA” value is on record as 35% and the “Mean number of larvae/leaf at 7 DAA” value stood at 2.3.
